Data taken from the Kinase Knowledgebase extract (Sharma et al. 2016).

Target: PIK3CA (human) (UniProt P42336)
Assay: Assessment of PIK3CA Kinase Activity

Chain of PIK3CA (human) (P42336 whole entry, looked up): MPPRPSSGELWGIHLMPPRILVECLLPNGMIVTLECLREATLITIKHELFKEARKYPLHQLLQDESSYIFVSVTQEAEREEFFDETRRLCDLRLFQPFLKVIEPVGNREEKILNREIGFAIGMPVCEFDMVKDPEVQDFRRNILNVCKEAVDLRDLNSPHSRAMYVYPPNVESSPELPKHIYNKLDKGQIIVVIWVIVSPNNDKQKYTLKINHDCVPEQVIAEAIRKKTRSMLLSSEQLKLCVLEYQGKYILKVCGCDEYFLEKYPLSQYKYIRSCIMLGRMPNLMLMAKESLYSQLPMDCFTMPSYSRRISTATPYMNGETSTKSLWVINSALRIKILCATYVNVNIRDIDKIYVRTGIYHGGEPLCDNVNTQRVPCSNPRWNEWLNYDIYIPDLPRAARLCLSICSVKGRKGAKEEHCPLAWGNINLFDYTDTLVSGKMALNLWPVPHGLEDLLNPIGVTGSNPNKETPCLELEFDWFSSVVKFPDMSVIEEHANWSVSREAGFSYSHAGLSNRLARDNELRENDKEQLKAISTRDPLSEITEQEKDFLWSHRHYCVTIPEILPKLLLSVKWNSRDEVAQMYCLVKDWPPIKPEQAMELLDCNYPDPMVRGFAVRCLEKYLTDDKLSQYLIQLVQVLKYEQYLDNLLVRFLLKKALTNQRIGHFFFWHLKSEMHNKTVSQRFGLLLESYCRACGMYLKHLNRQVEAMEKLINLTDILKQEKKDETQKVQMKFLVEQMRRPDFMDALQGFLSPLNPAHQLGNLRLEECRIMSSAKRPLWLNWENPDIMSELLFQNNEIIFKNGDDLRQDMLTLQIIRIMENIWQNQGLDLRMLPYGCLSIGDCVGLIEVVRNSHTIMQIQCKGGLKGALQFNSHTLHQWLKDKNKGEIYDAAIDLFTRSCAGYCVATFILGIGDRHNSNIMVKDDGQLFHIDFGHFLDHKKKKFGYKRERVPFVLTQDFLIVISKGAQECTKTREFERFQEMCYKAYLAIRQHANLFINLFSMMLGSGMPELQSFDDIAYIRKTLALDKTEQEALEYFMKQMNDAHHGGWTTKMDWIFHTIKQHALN

| Compound | IC50 [nM] |
| --- | --- |
| CNC(=O)c1sc(N2CCOc3c(C)cc(-c4cnc(Cl)c(NS(C)(=O)=O)c4)cc3C2)nc1C(C)C | 100 to 500 |
| Cc1cc(-c2cnc3sc(N)nc3c2)cc2c1OCCN(c1nccc(N)n1)C2 | 100 to 500 |
| Cc1cc(-c2cnc3sc(N)nc3c2)cc2c1OCCN(c1ncccc1C#N)C2 | 100 to 500 |
| Cc1cc(-c2cnc3sc(N)nc3c2)cc2c1OCCN(c1nc(C3CC3)nc(C)c1C(C)C)C2 | ≤ 100 |
| COCc1c(C)nc(C)nc1N1CCOc2c(C)cc(-c3cnc4sc(N)nc4c3)cc2C1 | ≤ 100 |
| Cc1cc(-c2cnc(Cl)c(NS(C)(=O)=O)c2)cc2c1OCCN(c1nc(CNCC(F)F)nc(C)c1C(C)C)C2 | ≤ 100 |
| Cc1cc(-c2nnc(N)s2)cc2c1OCCN(c1ncnc(C)c1C)C2 | ≤ 100 |
| Cc1cc(-c2ccncc2)cc2c1OCCN(c1nc(N)nc(C)c1C(C)C)C2 | ≤ 100 |
| CCc1nc(CN(C)C)nc(N2CCOc3c(C)cc(-c4cnc5sc(N)nc5c4)cc3C2)c1C(C)C | ≤ 100 |
| COCCc1cnc(C)nc1N1CCOc2c(C)cc(-c3cnc4sc(N)nc4c3)cc2C1 | ≤ 100 |
| C=C(C)c1c(C)ncnc1N1CCOc2c(C)cc(-c3cnc4sc(N)nc4c3)cc2C1 | ≤ 100 |
| Cc1cc(-c2cnc3sc(N)nc3c2)cc2c1OCCN(c1ncc(C#N)c(N)n1)C2 | ≤ 100 |
| C#CCc1c(C)nc(C)nc1N1CCOc2c(C)cc(-c3cnc4sc(N)nc4c3)cc2C1 | ≤ 100 |
| COCCc1c(C)nc(C)nc1N1CCOc2c(C)cc(-c3cnc4sc(N)nc4c3)cc2C1 | ≤ 100 |
| CC(=O)Nc1ncc(-c2cc(C)c3c(c2)CN(c2nc(N)nc(C)c2C(C)C)CCO3)s1 | 100 to 500 |
| Cc1cc(-c2cncnc2)cc2c1OCCN(c1nc(N)nc(C)c1C(C)C)C2 | 100 to 500 |
| Cc1cnccc1N1CCOc2c(C)cc(-c3cnc4sc(N)nc4c3)cc2C1 | ≤ 100 |
| Cc1cc(-c2cnc3sc(N)nc3c2)cc2c1OCCN(c1nc(CN)nc(C)c1C(C)C)C2 | ≤ 100 |
| Cc1nc2ccc(-c3cc(C)c4c(c3)CN(c3nc(N)nc(C)c3C(C)C)CCO4)cc2[nH]1 | ≤ 100 |

| Compound | IC50 [nM] |
| --- | --- |
| Cc1cc(-c2cnc3sc(N)nc3c2)cc2c1OCCN(c1nc(C(O)C(F)(F)F)nc(C)c1C(C)C)C2 (configuration not stated) | ≤ 100 |
| Cc1cc(-c2cnc3sc(N)nc3c2)cc2c1OCCN(c1nc(C3CNC3)nc(C)c1C(C)C)C2 | ≤ 100 |
| COc1ncc(-c2cc(C)c3c(c2)CN(c2nc(N)nc(C)c2C(C)C)CCO3)cc1NS(C)(=O)=O | ≤ 100 |
| Cc1cc(-c2cnc3sc(N)nc3c2)cc2c1OCCN(c1ncnc3c1CC[C@H](C)C3)C2 | ≤ 100 |
| Cc1cc(-c2cccnc2)cc2c1OCCN(c1nc(N)nc(C)c1C(C)C)C2 | ≤ 100 |
| Cc1nc2ccc(-c3cc(C)c4c(c3)CN(c3nc(CN(C)C)nc(C)c3C(C)C)CCO4)cc2[nH]1 | ≤ 100 |
| Cc1cc(-c2ccc(N)nc2)cc2c1OCCN(c1nc(N)nc(C)c1C(C)C)C2 | 100 to 500 |
| CCc1c(C)nc(CN(C)C)nc1N1CCOc2c(C)cc(-c3cnc4sc(N)nc4c3)cc2C1 | ≤ 100 |
| COC(C)c1c(C)nc(C)nc1N1CCOc2c(C)cc(-c3cnc4sc(N)nc4c3)cc2C1 (configuration not stated) | ≤ 100 |
| Cc1cc(-c2cnc3sc(N)nc3c2)cc2c1OCCN(c1nc(S(C)(=O)=O)nc(C)c1C(C)C)C2 | ≤ 100 |
| Cc1cc(-c2cnc(N)c(S(N)(=O)=O)c2)cc2c1OCCN(c1nc(N)nc(C)c1C(C)C)C2 | ≤ 100 |
| Cc1cc(-c2nnc(N)s2)cc2c1OCCN(c1nc(N)nc(C)c1C)C2 | ≤ 100 |
| CCN(Cc1nc(C)c(C(C)C)c(N2CCOc3c(C)cc(-c4cnc5nc[nH]c5c4)cc3C2)n1)CC(F)F | ≤ 100 |
| Cc1cc(-c2cnc(Cl)c(NS(=O)(=O)C(F)(F)F)c2)cc2c1OCCN(c1nc(N)nc(C)c1C(C)C)C2 | ≤ 100 |
| Cc1nc(N)nc(N2CCOc3ccc(-c4cnc5sc(N)nc5c4)cc3C2)c1C(C)C | ≤ 100 |
| Cc1cc(-c2cnc3sc(N)nc3c2)cc2c1OCCN(c1nc(CN(C)C)nc(C)c1C(C)C)C2 | ≤ 100 |
| COCCc1c(C)nc(N)nc1N1CCOc2c(C)cc(-c3cnc4sc(N)nc4c3)cc2C1 | ≤ 100 |
| Cc1cc(-c2cnc3sc(N)nc3c2)cc2c1OCCN(c1nc(CN3CCC(F)(F)C3)nc(C)c1C(C)C)C2 | ≤ 100 |
